Measurements from US20110152178A1 (priority 2008, published 2011).
“Also recorded” adds a separate entry of the source. Peptide text beside a SMILES is read from it. * marks the point of attachment. Stearoyl = CCCCCCCCCCCCCCCCCC(=O)*

Tests used:
[1] = system: influenza virus A/PR/8/34 (H1N1); assay: Plaque assay on MDCK cells, inhibition of influenza virus infection (H1N1); format: cell-based, influenza type A virus; settings: for IC50: H1N1, plaque assay on MDCK cells; for anti-influenza virus activity in vitro: MDCK plaque assay
Protocol: (§1) Inhibition of influenza virus infection was determined by a plaque assay on MDCK cells. The MDCK cells in 6-well plates were incubated with 0.2 mL of influenza virus A/PR/8/34 solutions (100 to 200 pfu; pfu denotes plaque-forming units; subtype H1N1) or influenza virus A/Victria/1/75 solutions (100-200 pfu; subtype H3N2) each containing C18-D1, S2 (H-ARLPRTMVHPKPAQP-NH2), C18-S2 (stearoyl-ARLPRTMVHPKPAQP-NH2), or D1 (H-GLAMAPSVGHVRQHG-NH2). After incubation at 37° C. under 5% CO2 for 30 minutes, the supernatant was removed, and the cells were washed with PBS. 2 mL (per well) of 2×MEM+BSA containing 0.6% agarose, 0.01% of O-diethylaminoethyl cellulose dextran, 0.1% NaHCO3, and 0.01 μg/mL of acetyl trypsin was added, and the cells were incubated for two days. Viable cells were stained with a crystal violet solution (1 mg/mL in 20% ethanol), and the number of plaques was counted. The maximum infection activity (100%) was defined as the number of plaques in the case of the absence of C18-D1. The IC50 value (50% inhibitory concentration) of C18-D1 was obtained from the plot between log [f/(1−f)] and log [C18-D1], wherein f is the percent infection activity. The IC50 values of S2, C18-S2, and D1 were calculated in a similar manner.

influenza virus (H1N1) = system: influenza virus (H1N1); parameters: species or system mice; settings: mouse
[2] = system: influenza virus A/Victria/1/75 (H3N2); assay: Plaque assay on MDCK cells, inhibition of influenza virus infection (H3N2); format: cell-based, influenza type A virus
Protocol: as §1

[3] = Critical micelle concentration by NPN fluorescence in PBS; format: physicochemical; settings: PBS (pH 7.5), 1 μM NPN
Protocol: The critical micelle concentration (CMC) of the purified C18-D1 was determined in the following manner. PBS (pH 7.5) containing 1 μM of N-phenyl-1-naphthylamine (hereinafter abbreviated as “NPN”) was prepared. A C18-D1 peptide stock solution (1 mM) was serially diluted to final concentrations of […], 10, and 30 μM. These solutions were excited by a wavelength of 350 nm, and the fluorescence intensity (FI) at 450 nm was measured. The difference in FI between each diluted peptide solution and PBS alone was plotted as the ordinate, and the peptide solutions were plotted as the abscissa. The concentration at the intersection of the high concentration curve and the low concentration curve was determined. The critical micelle concentration (CMC) of the intersection was 1.3 μM.

[4] = target: hemagglutinin of influenza type A virus A/PR/8/34 (H1N1) (influenza A virus A/PR/8/34 (H1N1)) (UniProt P03452); assay: cell-based or functional assay
[5] = target: hemagglutinin of influenza type A virus A/Victria/1/75 (H3N2) (influenza A virus A/Victria/1/75 (H3N2)); assay: cell-based or functional assay

## CCCCCCCCCCCCCCCCCC(=O)N[C@@H](C)C(=O)N[C@@H](CCCNC(=N)N)C(=O)N[C@@H](CC(C)C)C(=O)N1CCC[C@H]1C(=O)N[C@@H](CCCNC(=N)N)C(=O)N[C@H](C(=O)N[C@@H](CCSC)C(=O)N[C@H](C(=O)N[C@@H](Cc1c[nH]cn1)C(=O)N1CCC[C@H]1C(=O)N[C@@H](CCCCN)C(=O)N1CCC[C@H]1C(=O)N[C@@H](C)C(=O)N[C@@H](CCC(N)=O)C(=O)N1CCC[C@H]1C(N)=O)C(C)C)[C@@H](C)O [C18-S2, stearoyl ARLPRTMVHPKPAQP-NH2] (Stearoyl-ARLPRTMVHPKPAQP-NH2)
[1]
  IC50: 10 µM
  anti-influenza virus activity in vitro: potent anti-influenza virus effect in vitro; also recorded: excellent anti-influenza virus activity
Influenza virus (H1N1)
  in vivo effect on influenza virus infection: ineffective in vivo; also recorded: caused early mortality

## CCCCCCCCCCCCCCCCCC(=O)NCC(=O)N[C@@H](CC(C)C)C(=O)N[C@@H](C)C(=O)N[C@@H](CCSC)C(=O)N[C@@H](C)C(=O)N1CCC[C@H]1C(=O)N[C@@H](CO)C(=O)N[C@H](C(=O)NCC(=O)N[C@@H](Cc1c[nH]cn1)C(=O)N[C@H](C(=O)N[C@@H](CCCNC(=N)N)C(=O)N[C@@H](CCC(N)=O)C(=O)N[C@@H](Cc1c[nH]cn1)C(=O)NCC(N)=O)C(C)C)C(C)C [C18-D1, (stearoyl)-Gly Leu Ala Met Ala Pro Ser Val Gly His Val Arg Gln His Gly-NH2] (Stearoyl-GLAMAPSVGHVRQHG-NH2)
[1]
  IC50: 11 µM
  anti-influenza virus activity in vitro: inhibited
[1]; listed as 018-D1
  anti-influenza virus activity in vitro: excellent anti-influenza virus activity
[2]; H3N2, plaque assay on MDCK cells
  IC50: 7.5 µM
[2]; in vitro, MDCK plaque assay
  infection of MDCK cells with H3N2: inhibited
[3]
  critical micelle concentration (CMC): 1.3 µM
Influenza virus (H1N1); in vivo
  mice survived: ≥ 80%

## H-ARLPRTMVHPKPAQP-NH2 [S2-NH2, H-ARLPRTMVHPKPAQP-NH2]
[1]
  IC50: > 100 µM

## H-GLAMAPSVGHVRQHG-NH2 [D1-NH2, H-GLAMAPSVGHVRQHG-NH2]
[1]
  IC50: > 100 µM

B1: C18-D1 (stearoyl-Gly Leu Ala Met Ala Pro Ser Val Gly His Val Arg Gln His Gly-NH2), as self-assembly (peptide)
peptide: Stearoyl-GLAMAPSVGHVRQHG-NH2
[4]
  IC50 (plaque assay on MDCK cells, inhibition of influenza virus infection): 11 µM
[5]
  IC50 (plaque assay on MDCK cells, inhibition of influenza virus infection): 7.5 µM
